Like-named read-outs stand apart in the source and are kept apart here.
Assays:
[1] = CYP450 metabolic stability, human liver microsomes; type: in vitro ADME; settings: 5 μM in liver microsomes, 1 h incubation
[2] = CYP450 metabolic stability, dog liver microsomes; type: in vitro ADME; settings: 5 μM in liver microsomes, 1 h incubation
MAGL = molecular target: T1, MAGL (Rattus norvegicus, UniProt Q8R431); test: MAGL activity in rat cerebellum cytosol; type: biochemical; settings: for MAGL (100 μM), percent of control / MAGL activity, percent of control: C inhib=100 μM in rat cerebellum cytosol; for selectivity over MAGL: text b31; for MAGL activity, percent of control: Table 2
T1 sequence (Q8R431 1-303): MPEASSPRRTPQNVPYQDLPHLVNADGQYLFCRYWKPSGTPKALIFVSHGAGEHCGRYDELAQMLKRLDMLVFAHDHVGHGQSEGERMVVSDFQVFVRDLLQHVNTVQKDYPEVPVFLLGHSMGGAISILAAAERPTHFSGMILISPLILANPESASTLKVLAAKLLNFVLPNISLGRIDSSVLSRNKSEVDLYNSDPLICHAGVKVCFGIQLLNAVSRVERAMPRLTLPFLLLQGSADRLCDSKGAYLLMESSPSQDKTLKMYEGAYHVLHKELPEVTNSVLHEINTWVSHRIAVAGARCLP

[3] = CYP450 metabolic stability, primate liver microsomes; type: in vitro ADME; settings: 5 μM in liver microsomes, 1 h incubation
FAAH [4] = molecular target: T2, FAAH (Mus musculus, UniProt O08914); test: In vivo FAAH inhibition, liver, after oral administration to mice; settings: for in vivo FAAH inhibitory activity, liver: 0.1 mg kg^−1, mouse, p.o., text b31; for time of maximum inhibitory effect in the liver: 0.1 mg kg^−1 p.o., mice, post-dose
T2 sequence (O08914 1-579): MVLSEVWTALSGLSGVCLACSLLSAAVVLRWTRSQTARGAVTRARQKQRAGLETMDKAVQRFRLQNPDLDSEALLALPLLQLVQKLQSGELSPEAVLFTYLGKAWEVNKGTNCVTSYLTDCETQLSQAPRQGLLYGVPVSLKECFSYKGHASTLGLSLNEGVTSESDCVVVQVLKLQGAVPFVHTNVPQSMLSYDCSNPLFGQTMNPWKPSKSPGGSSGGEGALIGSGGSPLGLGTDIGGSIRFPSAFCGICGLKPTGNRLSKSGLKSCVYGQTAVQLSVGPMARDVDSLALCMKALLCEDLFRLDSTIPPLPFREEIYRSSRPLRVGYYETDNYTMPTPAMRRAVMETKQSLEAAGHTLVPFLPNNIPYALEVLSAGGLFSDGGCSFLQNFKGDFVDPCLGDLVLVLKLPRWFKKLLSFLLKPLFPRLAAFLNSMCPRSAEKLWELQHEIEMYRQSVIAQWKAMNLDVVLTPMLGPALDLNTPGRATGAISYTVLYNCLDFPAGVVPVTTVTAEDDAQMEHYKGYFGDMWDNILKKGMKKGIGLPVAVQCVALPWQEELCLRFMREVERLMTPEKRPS

carboxylesterases (CEs) = test: CE activity in rat liver microsomes; type: biochemical; settings: for CEs (10 μM), percent of control: 10 μM in rat liver microsomes; for selectivity over CEs: text b31; for CEs activity, percent of control: C inhib=10 μM in rat liver microsomes, Table 2
[5] = CYP450 metabolic stability, rat liver microsomes; type: in vitro ADME; settings: 5 μM in liver microsomes, 1 h incubation
[6] = CYP450 metabolic stability, mouse liver microsomes; type: in vitro ADME; settings: 1 h incubation; for CYP450 metabolic stability, Mouse, percent of remaining: 5 μM in liver microsomes; for CYPs (50 μM), percentage remaining: C inhib=50 μM in mouse liver microsomes
FAAH [7] = molecular target: T2, FAAH; test: In vivo FAAH inhibition, brain, after oral administration to mice; settings: for in vivo FAAH inhibitory activity, brain: text b31; for time of maximal inhibitory effect in the brain (t max): post-dose; for ED50 cerebral FAAH: 0.001 to 3 mg kg^−1, 8 h post-administration
FAAH [8] = molecular target: T3, FAAH (Rattus norvegicus, UniProt P97612); test: In vitro FAAH activity in rat brain homogenates/membranes; type: biochemical; settings: for FAAH activity, percent of control, 10 nM / FAAH activity, percent of control, 100 nM: rat brain homogenates, 15 min pre-incubation
T3 sequence (P97612 1-579): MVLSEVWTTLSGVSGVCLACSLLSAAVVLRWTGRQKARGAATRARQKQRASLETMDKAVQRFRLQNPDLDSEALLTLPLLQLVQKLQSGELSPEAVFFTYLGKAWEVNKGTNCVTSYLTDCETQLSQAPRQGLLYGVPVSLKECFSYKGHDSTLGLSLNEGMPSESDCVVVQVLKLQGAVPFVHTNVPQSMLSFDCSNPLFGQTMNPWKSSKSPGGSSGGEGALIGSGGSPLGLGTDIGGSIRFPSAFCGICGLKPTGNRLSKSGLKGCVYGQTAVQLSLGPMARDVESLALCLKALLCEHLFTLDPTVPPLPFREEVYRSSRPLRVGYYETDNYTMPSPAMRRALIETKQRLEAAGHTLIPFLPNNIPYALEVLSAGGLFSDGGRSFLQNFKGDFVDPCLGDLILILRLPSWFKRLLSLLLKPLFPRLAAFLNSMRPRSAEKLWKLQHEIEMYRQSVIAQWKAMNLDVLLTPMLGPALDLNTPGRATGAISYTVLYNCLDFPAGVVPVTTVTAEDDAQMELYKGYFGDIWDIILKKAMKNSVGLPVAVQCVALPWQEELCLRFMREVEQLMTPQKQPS

FAAH [9] = settings: read-out: FAAH IC50 (in vitro potency); cited from earlier work
[10] = 0.1 mg kg^−1 p.o. in mice, 8 h after administration, Table 4
[11] = mouse, po, 8 h, read-out: ED50 liver FAAH
[12] = 30 mg kg^−1 p.o. in mice, 1 h after administration, Table 2
[13] = 0.1 mg kg^−1 p.o. in mice, 8 h after administration, Table 5

Row | CYP450 metabolic stability, Human, percent of remaining [1] | CYP450 metabolic stability, Dog, percent of remaining [2] | MAGL (100 μM), percent of control (MAGL; Table 4) | CYP450 metabolic stability, Primate, percent of remaining [3] | Liver FAAH activity, percent of control (FAAH [4]; [10]) | CYP450 metabolic stability, Rat, percent of remaining [5] | CYP450 metabolic stability, Mouse, percent of remaining [6] | CYPs (50 μM), percentage remaining [6] [percentage remaining] | Brain FAAH activity, percent of control (FAAH [7]; [10]) | FAAH activity, percent of control, 10 nM (FAAH [8]; Table 2) | FAAH activity, percent of control, 100 nM (FAAH [8]; Table 2) | MAGL activity, percent of control (MAGL) | Liver FAAH activity, percent of control (FAAH [4]; [12]) | Brain FAAH activity, percent of control (FAAH [7]; [12]) | SMILES | CEs (10 μM), percent of control (carboxylesterases (CEs); Table 4) | CEs activity, percent of control (carboxylesterases (CEs)) | further results
1 | 96±8% of remaining | 101±6% of remaining | 96±2% of control | 57±3% of remaining | 6±1% of control | 87±0% of remaining | 87±9% of remaining | 67±2 | 6±1% of control | – | – | – | – | – | CC1(C)COCN1C(=O)n1nnc2cc(C(N)=O)ccc21 [Compound 11 h, 1‐(4,4‐Dimethyloxazolidine‐3‐carbonyl)‐1H‐benzo[d][1,2,3]triazole‐5‐carboxamide] | 81±7% of control | – | selectivity over MAGL (MAGL): > 80 % of control; in vivo FAAH inhibitory activity, liver (FAAH [4]): > 90 % of control; time of maximum inhibitory effect in the liver (FAAH [4]): 1 h; ED50 (FAAH [4]; [11]): 0.007 mg/kg; inhibition at 0.1 mg/kg (FAAH [4]; mouse, po, read-out: peripheral inhibition of FAAH sustained over the next 7 h): > 90%; selectivity over CEs (carboxylesterases (CEs)): > 80 % of control; in vivo FAAH inhibitory activity, brain (FAAH [7]; 0.1 mg kg^−1, mouse, p.o.): > 90 % of control; time of maximal inhibitory effect in the brain (t max) (FAAH [7]; 0.1 mg kg^−1 p.o., mice): 1 h; ED50 cerebral FAAH (FAAH [7]; mice, p.o.): 0.014 mg/kg
2 | – | – | – | – | 54±6% of control | – | – | 73±2 | 76±18% of control | – | – | – | – | – | CC1(C)COCN1C(=O)n1nnc2ccc(-c3ccccc3)cc21 [Compound 11 d, (4,4‐Dimethyloxazolidin‐3‐yl)(6‐phenyl‐1H‐benzo[d][1,2,3]triazol‐1‐yl)methanone] | 92±2% of control | – | –
3 | 52±9% of remaining | 1±0% of remaining | 90±5% of control | 0±0% of remaining | 10±4% of control | 26±0% of remaining | 5±0% of remaining | 25±2 | 24±7% of control | 78±25% of control | 2±1% of control | 90±5% of control | 2±1% of control | 0±0% of control | CC1(C)COCN1C(=O)n1nnc2ccccc21 [Compound 11 a] | 81±6% of control | 81±6% of control | IC50 (FAAH [8]): 19 nM; ED50 (FAAH [4]; mouse, po, 1 h, read-out: ED50 liver (peripheral) FAAH): 0.007 mg/kg; ED50 brain (cerebral) FAAH (FAAH [7]; mouse, p.o., 0.001–3.0 mg kg^−1, 1 h post-dose): 0.061 mg/kg
4 | – | – | 67±12% of control | – | 16±6% of control | – | – | 8±2 | 77±29% of control | – | – | – | – | – | CC1(C)COCN1C(=O)n1nnc2ccc(Br)cc21 [Compound 11 b, (6‐Bromo‐1H‐benzo[d][1,2,3]triazol‐1‐yl)(4,4‐dimethyloxazolidin‐3‐yl)methanone] | 73±9% of control | – | –
5 | 75±4% of remaining | 54±0% of remaining | – | 41±3% of remaining | – | 88±6% of remaining | 62±0% of remaining | – | – | – | – | – | – | – | CN(C(=O)n1cnc(-c2ccccc2)c1)C1CCN(Cc2ccccc2)CC1 [Compound 8 h] | – | – | FAAH activity, percent of control, 100 nM (FAAH [8]; Table 5): 41±7% of control; MAGL (100 μM), percent of control (MAGL; Table 5): 92±8% of control; selectivity over MAGL (MAGL): > 80 % of control; in vivo FAAH inhibitory activity, liver (FAAH [4]): > 90 % of control; Liver FAAH activity, percent of control (FAAH [4]; [13]): 10±2% of control; time of maximum inhibitory effect in the liver (FAAH [4]): 1 h; ED50 (FAAH [4]; [11]): 0.028 mg/kg; inhibition at 0.1 mg/kg (FAAH [4]; mouse, po, read-out: peripheral (liver) FAAH inhibition): > 90%; CEs (10 μM), percent of control (carboxylesterases (CEs); Table 5): 97±8% of control; selectivity over CEs (carboxylesterases (CEs)): > 80 % of control; cerebral (brain) FAAH inhibition (FAAH [7]; 0.1 mg kg^−1, mouse, p.o., 8 h post-dose): over 90%; in vivo FAAH inhibitory activity, brain (FAAH [7]; 0.1 mg kg^−1, mouse, p.o.): > 90 % of control; Brain FAAH activity, percent of control (FAAH [7]; [13]): 11±4% of control; time of maximal inhibitory effect in the brain (t max) (FAAH [7]; 0.1 mg kg^−1 p.o., mice): 8 h; central FAAH inhibition maintained up to 48 h post-administration (FAAH [7]; 0.1 mg kg^−1 p.o., mice, up to 48 h): > 50%; ED50 cerebral FAAH (FAAH [7]; mice, p.o.): approximately 79 μg kg^−1
6 | – | – | 87±4% of control | – | 74±20% of control | – | – | – | 91±7% of control | – | – | 87±4% of control | 6±1% of control | 9±2% of control | NC(=O)c1cccc(-c2cccc(OC(=O)NC3CCCCC3)c2)c1 [Compound 2, URB597, reference compound] | […] | […] | inhibition at 30 mg/kg (FAAH [4]; mouse, po, read-out: FAAH inhibition in the liver): > 90%; IC50 (FAAH [9]): […]; FAAH inhibition in the brain (FAAH [7]; 30 mg kg^−1 p.o., mice, 1 h post-administration): over 90%
7 | – | – | – | – | – | – | – | – | – | 0±0% of control | 0±0% of control | 7±5% of control | 6±1% of control | 8±1% of control | O=C(N1CCC(Cc2ccccc2)CC1)n1nnc2ccccc21 [Compound 10 h] | – | 24±2% of control | –
8 | – | – | – | – | – | – | – | – | – | 13±1% of control | 2±1% of control | 4±1% of control | 84±6% of control | 87±7% of control | O=C(NCc1ccccc1)n1nnc2ccccc21 [Compound 10 e] | – | 67±4% of control | –
9 | – | – | – | – | – | – | – | – | – | 1±0% of control | 1±2% of control | 73±3% of control | 1±0% of control | 0±0% of control | CN(C(=O)n1nnc2ccccc21)C1CCCCC1 [Compound 10 k] | – | 30±1% of control | –
